The text below walks through data of patent publication US9718824B2, “Solid forms comprising 7-(6-(2-hydroxypropan-2-yl)pyridin-3-yl)-1-((trans)-4-methoxycyclohexyl)-3,4-dihydropyrazino[2,3-b]pyrazin-2(1H)-one, and a coformer, compositions and methods of use thereof” (Signal Pharmaceuticals, LLC, priority 2014, dated 2017).

This series is described as follows: Physical stability under accelerated ageing conditions, re-analysis by XRPD and digital imaging. The class given is physicochemical. The settings on record: 40° C. and 75% RH, 48 hours. As to the method:
AAC: Accelerated aging conditions (48 hours at 40° C. and 75% RH)
Physical stability of all samples was studied by exposing all solids to accelerated ageing conditions (40° C./75% RH for 48 hours) followed by re-analysis by XRPD and digital imaging. After exposure to accelerated ageing conditions, all solids were re-classified on the basis of their new XRPD patterns. The assignment of solid forms was primarily based on the XRPD analysis.
Subsequently, all solids were placed in a climate chamber at 40° C. and 75% RH for […] and again analyzed by XRPD and digital imaging.
Compound 1 free base was solid dosed in 1.8 mL scale experimental vials. The coformer was added at a ratio of 1:1.1 (Compound 1:coformer). The solvent and a stirring bar were added to the vials. […] After the solids were separated from the liquids, the solids were analyzed wet by XRPD and digital imaging. […] The solids obtained were then analyzed by XRPD and digital imaging. Subsequently, the solids were incubated in a climate chamber at 40° C. and 75% RH for 48 hours and again analyzed by XRPD and digital imaging.
In these experiments 4 coformers and 6 solvents were tested (see Table 10). […] All obtained solids were then analyzed by XRPD and digital imaging. Subsequently, the solids were placed in a climate chamber at 40° C. and 75% RH for 3 days after which they were analyzed by XRPD and digital imaging again. […]

Turning to `COC1CCC(N2C(=O)CNc3ncc(-c4ccc(C(C)(C)O)nc4)nc32)CC1.O=C(O)C=CC(=O)O` (stereo not shown) [Form 1], the “Physical stability at accelerated aging conditions (solid form by XRPD)” value is recorded as “stable”.
